Laboratory results published in patent publication US20190388354A1, “IMPROVED COMPOSITIONS AND METHODS FOR REDUCING OVERDOSE” (priority 2017, published 2019).
Where “and” joins values, the source holds several entries; their conditions need not be identical. Equal values may be shown once.

Experiment: Effect of different alkalinizing agents on the pH of an acidic solution
Type: physicochemical
Protocol: Various alkalinizing agents were added to a solution of 0.1 N HCl with a starting pH of 2.0 and the pH of the solution was tested at different time points.

For Cl.N=C(N)NCCC[C@H](N)C(=O)O [Arginine HCl, L-arginine-HCl], the “pH of 0.1N HCl solution (starting pH 2.0)” value (“pH of 0.1N HCl solution” for short) (100 mg Arginine HCl in 200 ml, time: 10,20,30,40,50,60 min) was 2.20.
In the case of CNC[C@H](O)[C@@H](O)[C@H](O)[C@H](O)CO [Meglumine, meglumine], the “pH of 0.1N HCl solution” value (120 mg in 200 ml, time: 10,20,30,40,50,60 min) is reported as 2.16.
With CC(=O)[O-].[Na+] [Sodium Acetate, sodium acetate] the “pH of 0.1N HCl solution” value (200 mg in 200 ml, time: 10,20,30,40,50,60 min) was 4.96 and 5.08 and 5.21 and 5.34 and 4.73.
For O=C([O-])CC(O)(CC(=O)[O-])C(=O)[O-].[Na+].[Na+].[Na+] [Sodium Citrate, sodium citrate], the “pH of 0.1N HCl solution” value (930 mg in 200 ml, time: 10,20,30,40,50,60 min) was 5.53.
For O=C([O-])[O-].[Ca+2] [calcium carbonate], the “effect on the pH of the solution” value (240 mg/320 ml (0.75 mg/ml), 60 minute timecourse) was “rapidly raised the pH of the solution to neutral or higher” and the “effect on the pH of the solution” value (120-140 mg/200 ml, 60 minute timecourse) was “raise the pH of the solution to near neutral or neutral”.
For O=C([O-])[O-].[Mg+2] [magnesium carbonate], the “pH reached” value (80 mg in 200 ml, 30 minute timecourse) was “above 9” and the “pH of 0.1N HCl solution” value (100 mg Magnesium Carbonate in 200 ml, time: 10,20,30,40,50,60 min) was 3.05.
For [Mg+2].[OH-].[OH-] [magnesium hydroxide], the “pH of 0.1N HCl solution” value (60 mg in 200 ml, time by row: r6-r15=1-10 min, r16-r20=20,30,40,50,60 min) was 2.96 and 2.99 and 3.00 and 3.01 and 2.50 and 2.66 and 2.83 and 2.92, the “pH of 0.1N HCl solution” value (60 mg per 500 mL, time by row: r8-r18=0-10 min, r19-r23=20,30,40,50,60 min) was 2.12 and 2.17 and 2.18 and 2.19 and 2.01 and 2.06 and the “effect on the pH of the solution” value (71 mg/200 ml, 81 mg/200 ml and 100 mg/200 ml, 60 minute timecourse) was “raised the pH of the solution to neutral or higher”. For the same compound, the “pH of 0.1N HCl solution” value (100 mg per 500 mL, time by row: r8-r18=0-10 min, r19-r23=20,30,40,50,60 min) was 2.21 and 2.33 and 2.38 and 2.40 and 2.41 and 2.03 and 2.10 and the “effect on the pH of the solution” value (100 mg/320 ml, 180 mg/500 ml, 120 mg/320 ml, 200 mg/500 ml and 240 mg/500 ml, 60 minute timecourse) was “rapidly raised the pH of the solution to neutral or higher”.
In the case of [O]=[Mg] [magnesium oxide], the “effect on the pH of the solution” value (160 mg/320 ml (0.5 mg/ml), 60 minute timecourse) is reported as “rapidly raised the pH of the solution to neutral or higher” and the “effect on the pH of the solution” value (80-120 mg/200 ml powder and 80 mg granular form in 200 ml, 60 minute timecourse) is reported as “rapidly raise the pH of the solution to neutral or higher”.
With O=C([O-])O.[Na+] [sodium bicarbonate] the “pH of 0.1N HCl solution” value (20 mg per 320 mL, time by row: r6-r16=0-10 min, r17-r21=20,30,40,50,60 min) was 2.05 and 2.02 and 2.04, the “effect on the pH of the solution” value (20 mg/320 ml and 40 mg/320 ml, 60 minute timecourse) was “neither amount tested was sufficient to raise the pH to neutral or higher” and the “pH of 0.1N HCl solution” value (40 mg per 320 mL, time by row: r6-r16=0-10 min, r17-r21=20,30,40,50,60 min) was 2.08 and 2.09 and 2.05. The “pH of 0.1N HCl solution” value (50 mg in 200 ml, time by row: r6-r10=0,10,20,30,40 min) was 1.72 and 1.71, the “pH of 0.1N HCl solution” value (100 mg in 200 ml, time by row: r6-r10=0,10,20,30,40 min) was 1.75 and 1.71 and 1.76 and the “effect on the pH of the solution” value (50 and 100 mg/200 ml, 40 minute timecourse) was “neither tested amount was sufficient to raise the pH”.
With O=C([O-])[O-].[Na+].[Na+] [sodium carbonate] the “pH of 0.1N HCl solution” value (11.13 mg in 200 ml, time by row: r7-r12=0-5 min, r13-r16=10,15,20,60 min) was 2.80 and 2.66, the “pH of 0.1N HCl solution” value (30.11 mg in 200 ml, time by row: r7-r12=0-5 min, r13-r16=10,15,20,60 min) was 3.25 and 3.26 and 3.27 and 2.57 and 3.21 and 3.24 and the “effect on the pH of the solution” value (81.68 mg in 200 ml, 60 minute timecourse) was “raise the pH of the 200 ml solution to above neutral”.
For CCCCCCCCCCCCOS(=O)(=O)[O-].[Na+] [sodium lauryl sulfate], the “pH of 0.1N HCl solution” value (10 mg (10.22 mg actual) in 200 ml, time by row: r6-r16=0-10 min, r17=20, r18=30 min, sulfate) was 2.67 and 2.68 and the “effect on the pH of the solution” value (10 mg in 200 ml, 30 minute timecourse) was “insufficient to substantially raise the pH”.
